Reference: patent US11821905B2, “Biomarkers of vascular disease” (Arterez, Inc., priority 2015, dated 2023)

How the values were obtained:
Type in all cases: in vivo, mouse
[1] = test system: Hyaluronan Synthase 1 (HAS-1); assay: Hyaluronan Synthase 1 (HAS-1) ELISA on plasma, murine model of atherosclerosis, Example 2; details: FIG. 10; high fat diet, PCB on Day 1 and 3, sacrificed at Day 4
Text: (§1) A novel model of atherosclerosis in mice was developed, using a high fat diet and administration of a polychlorinated biphenyl (3,3′,4,4′-Tetrachlorobiphenyl; PCB-77) that promotes both obesity and atherosclerosis and the additional oral administration of a bacteria responsible for tooth decay, Porphyromonas gingivalis 381 (ATCC 33277). The objective of this study was to examine the association of biomarkers with the murine model of atherosclerosis in mice treated with a strategy to protect and repair endothelial glycocalyx. Eighty-four (84) ten week old male C57/BI6 mice were obtained from Jackson Laboratories. Thirty-two mice were raised from 6 weeks on a regular diet and served as controls, and the remaining mice were raised on a 60% fat diet (D12451, DIO series diet, Opensource Diets). 3,3′,4,4′-Tetrachlorobiphenyl (PCB-77) was obtained from Neosyn Laboratories. The dry chemical was suspended in 15.22 ml of corn oil to deliver 200 μmol/kg in 0.2 ml by gavage per mouse.
(§2) Four test kits were used to analyze the collected plasma samples: Heparan Sulfate ELISA and Hyaluronan Synthase 1 (HAS-1) ELISA (Antibodies-Online), Total Plasminogen Activation Inhibitor-1 (PAI-1) ELISA (Molecular-Innovive) and Syndecan-1 (SDC1) ELISA (USCN, Houston, Tex.). […]

Heparan Sulfate (HS) = assay: Heparan Sulfate ELISA on plasma, murine model of atherosclerosis, Example 2; details: FIG. 11; mice treated PCB-77 and Porphyromonas gingivalis
Text: as §1, §2

C57/BI6 mice [2] = assay: Pathology of arterial wall, murine model of atherosclerosis, Example 2; details: FIGS. 14A, 14B; positive control group (High fat diet, PCB)
Text: as §1
The mice were sacrificed on days 4, 11, or 18 according to the experimental plan (three each from groups). The animals were anesthetized by intraperitoneal injection of 90 mg/kg Ketamine and 8 mg/kg Xylazine, and Isoflurane gas anesthesia. Blood was collected by retro-orbital bleeding or from the heart and mixed with 50 mg/ml heparin to prevent clotting. […]

Syndecan-1 (SDC1) = Syndecan-1 (SDC1) ELISA on plasma, murine model of atherosclerosis, Example 2; details: FIG. 13; mice treated PCB-77 and Porphyromonas gingivalis; high degree of variability
Text: as §1, §2

C57/BI6 mice [3] = assay: Histology disease score (Oil Red O, plaque, fibrous tissue, inflammation), Example 1; details: FIG. 9, gavage 150 μmol/kg, sacrifice days 10, 15, 20
Method: For the pilot study, 48 ten week old male C57/BI6 mice were obtained from Jackson Laboratories. Three mice were raised from 6 weeks on a regular diet and served as controls, and the remaining 45 were raised on a 60% fat diet (D12451, DIO series diet, Opensource Diets). For the bacterial dosage test, 16 ten week old male C57/BI6 mice were divided into 4 treatment groups and maintained on a normal diet.
3,3′,4,4′-Tetrachlorobiphenyl (PCB-77) was obtained from Neosyn Laboratories. 100 mg of the dry chemical was suspended in 15.22 ml of corn oil to deliver 150 μmol/kg in 0.2 ml per mouse. Porphyromonas gingivalis 381 (ATCC 33277) was obtained from ATCC. The bacteria were stored frozen prior to use. […] A microplate reader was used to measure the optical density at 600 nm to determine the concentration of bacteria. […]
The hearts were prepared as frozen sections. […] Multiple 10 μm sections at the level of the aortic sinus were analyzed for the presence of oil Red O lipid staining, plaque size, amount of fibrous tissue, and inflammation. The percentage of the lumen occupied by the first three features was calculated using Image Pro Plus. […] The level of inflammation in each section was scored on the following scale: 0=no inflammatory cells observed, 1=few macrophages with no giant cells, 2=foam cells present, 3=foam cells with cholesterol, 4=foam cells, giant cells, and cholesterol present. […]

Clc1ccc(-c2ccc(Cl)c(Cl)c2)cc1Cl [PCB-77, 3,3′,4,4′-Tetrachlorobiphenyl]
HAS-1 levels [1]: highest HAS-1 levels | Heparan Sulfate (HS) level (Heparan Sulfate (HS)): elevation in HS | pathology of arterial wall (C57/BI6 mice [2]): presence of a pathology consistent with plaque | SDC-1 level (Syndecan-1 (SDC1)): elevation in SDC-1 | average disease scores for each group and time point (inflammation and plaque) (C57/BI6 mice [3]): most significant risk factor to producing inflammation and plaque
